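Abbreviation: GI50, concentration required for 50% inhibition of growth. TGI is the concentration that stops growth completely.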
Columns and labels:
Test in all cases: inhibition of tumour cell growth, NCI panel, 384-well format
786-0 renal = system: 786-0 renal
A498 renal = system: A498 renal
A549 NSCLC = system: A549 NSCLC
ACHN renal = system: ACHN renal
BT-549 breast = system: BT-549 breast
CAKI-1 renal = system: CAKI-1 renal
CCRF-CEM leukemia = system: CCRF-CEM leukemia
COLO 205 colon = system: COLO 205 colon
DU-145 prostate = system: DU-145 prostate
EKVX NSCLC = system: EKVX NSCLC
HCC-2998 colon = system: HCC-2998 colon
HCT-116 colon = system: HCT-116 colon
HCT-15 colon = system: HCT-15 colon
HL-60(TB) leukemia = system: HL-60(TB) leukemia
HOP-62 NSCLC = system: HOP-62 NSCLC
HOP-92 NSCLC = system: HOP-92 NSCLC
HS 578T breast = system: HS 578T breast
HT29 colon = system: HT29 colon
IGROV1 ovarian = system: IGROV1 ovarian
K-562 leukemia = system: K-562 leukemia
KM12 colon = system: KM12 colon
LOX IMVI melanoma = system: LOX IMVI melanoma
M14 melanoma = system: M14 melanoma
MALME-3M melanoma = system: MALME-3M melanoma
MCF7 breast = system: MCF7 breast
MDA-MB-231 breast = system: MDA-MB-231 breast
MDA-MB-435 melanoma = system: MDA-MB-435 melanoma
MOLT-4 leukemia = system: MOLT-4 leukemia
NCI-H226 lung = system: NCI-H226 lung
NCI-H23 lung = system: NCI-H23 lung
NCI-H322M lung = system: NCI-H322M lung
NCI-H460 NSCLC = system: NCI-H460 NSCLC
NCI-H522 lung = system: NCI-H522 lung
NCI/ADR-RES ovarian = system: NCI/ADR-RES ovarian
OVCAR-3 ovarian = system: OVCAR-3 ovarian
OVCAR-4 ovarian = system: OVCAR-4 ovarian
OVCAR-5 ovarian = system: OVCAR-5 ovarian
OVCAR-8 ovarian = system: OVCAR-8 ovarian
PC-3 prostate = system: PC-3 prostate
RPMI-8226 leukemia = system: RPMI-8226 leukemia
RXF 393 renal = system: RXF 393 renal
SF-268 CNS = system: SF-268 CNS
SF-295 CNS = system: SF-295 CNS
SF-539 CNS = system: SF-539 CNS
SK-MEL-2 melanoma = system: SK-MEL-2 melanoma
SK-MEL-28 melanoma = system: SK-MEL-28 melanoma
SK-MEL-5 melanoma = system: SK-MEL-5 melanoma
SK-OV-3 ovarian = system: SK-OV-3 ovarian
SN12C renal = system: SN12C renal
SNB-19 CNS = system: SNB-19 CNS
SNB-75 CNS = system: SNB-75 CNS
SR leukemia = system: SR leukemia
SW-620 colon = system: SW-620 colon
T-47D breast = system: T-47D breast
TK-10 renal = system: TK-10 renal
U251 glioblastoma = system: U251 glioblastoma
UACC-257 melanoma = system: UACC-257 melanoma
UACC-62 melanoma = system: UACC-62 melanoma
UO-31 renal = system: UO-31 renal

In the case of `CN1C(=O)[C@@H](NC(=O)[C@H](CCC(F)(F)F)[C@H](CCC(F)(F)F)C(N)=O)N=C(c2ccccc2)c2ccccc21`, the GI50 ([…]-0 renal) is reported as 87.1 µM, the TGI (786-0 renal) is reported as > 100 µM and the GI50 (A498 renal) is reported as 42 µM. The TGI (A498 renal) was > 100 µM, the GI50 (A549 NSCLC) was 67.5 µM and the TGI (A549 NSCLC) was > 100 µM. The GI50 (ACHN renal) was > 100 µM, the TGI (ACHN renal) was > 100 µM and the GI50 (BT-549 breast) was > 100 µM. The TGI (BT-549 breast) was > 100 µM, the GI50 (CAKI-1 renal) was 58.2 µM and the TGI (CAKI-1 renal) was > 100 µM. For the same compound, the GI50 (CCRF-CEM leukemia) was 53.3 µM, the TGI (CCRF-CEM leukemia) was > 100 µM and the GI50 (COLO 205 colon) was > 79.5 µM. The TGI (COLO 205 colon) was > 100 µM, the GI50 (DU-145 prostate) was > 100 µM and the TGI (DU-145 prostate) was > 100 µM. The GI50 (EKVX NSCLC) was > 100 µM, the TGI (EKVX NSCLC) was > 100 µM and the GI50 (HCC-2998 colon) was > 100 µM. For the same compound, the TGI (HCC-2998 colon) was > 100 µM, the GI50 (HCT-116 colon) was > 92.7 µM and the TGI (HCT-116 colon) was > 100 µM. For the same compound, the GI50 (HCT-15 colon) was > 95.7 µM, the TGI (HCT-15 colon) was > 100 µM and the GI50 (HL-60(TB) leukemia) was > 51.6 µM. For the same compound, the TGI (HL-60(TB) leukemia) was > 100 µM, the GI50 (HOP-62 NSCLC) was > 100 µM and the TGI (HOP-62 NSCLC) was > 100 µM. For the same compound, the GI50 (HOP-92 NSCLC) was 33.9 µM, the TGI (HOP-92 NSCLC) was > 100 µM and the GI50 (HS 578T breast) was 24.7 µM. For the same compound, the TGI (HS 578T breast) was > 100 µM, the GI50 (HT29 colon) was 62.5 µM and the TGI (HT29 colon) was > 100 µM. The GI50 (IGROV1 ovarian) was > 100 µM, the TGI (IGROV1 ovarian) was > 100 µM and the GI50 (K-562 leukemia) was 71.6 µM. For the same compound, the TGI (K-562 leukemia) was > 100 µM, the GI50 (KM12 colon) was > 100 µM and the TGI (KM12 colon) was > 100 µM. For the same compound, the GI50 (LOX IMVI melanoma) was > 100 µM, the TGI (LOX IMVI melanoma) was > 100 µM and the GI50 (M14 melanoma) was > 100 µM. The TGI (M14 melanoma) was > 100 µM, the GI50 (MALME-3M melanoma) was > 100 µM and the TGI (MALME-3M melanoma) was > 100 µM. For the same compound, the GI50 (MCF7 breast) was 40.9 µM, the TGI (MCF7 breast) was > 100 µM and the GI50 (MDA-MB-231 breast) was > 93.3 µM. The TGI (MDA-MB-231 breast) was > 100 µM, the GI50 (MDA-MB-435 melanoma) was > 100 µM and the TGI (MDA-MB-435 melanoma) was > 100 µM. The GI50 (MOLT-4 leukemia) was 19.8 µM, the TGI (MOLT-4 leukemia) was > 100 µM and the GI50 (NCI-H226 lung) was > 52.7 µM. The TGI (NCI-H226 lung) was > 100 µM, the GI50 (NCI-H23 lung) was > 100 µM and the TGI (NCI-H23 lung) was > 100 µM. The GI50 (NCI-H322M lung) was > 100 µM, the TGI (NCI-H322M lung) was > 100 µM and the GI50 (NCI-H460 NSCLC) was 84.4 µM. For the same compound, the TGI (NCI-H460 NSCLC) was > 100 µM, the GI50 (NCI-H522 lung) was 79.9 µM and the TGI (NCI-H522 lung) was > 100 µM. For the same compound, the GI50 (NCI/ADR-RES ovarian) was > 100 µM, the TGI (NCI/ADR-RES ovarian) was > 100 µM and the GI50 (OVCAR-3 ovarian) was 55.9 µM. For the same compound, the TGI (OVCAR-3 ovarian) was > 100 µM, the GI50 (OVCAR-4 ovarian) was 43.4 µM and the TGI (OVCAR-4 ovarian) was > 100 µM. The GI50 (OVCAR-5 ovarian) was > 100 µM, the TGI (OVCAR-5 ovarian) was > 100 µM and the GI50 (OVCAR-8 ovarian) was > 100 µM. For the same compound, the TGI (OVCAR-8 ovarian) was > 100 µM, the GI50 (PC-3 prostate) was > 94.6 µM and the TGI (PC-3 prostate) was > 100 µM. For the same compound, the GI50 (RPMI-8226 leukemia) was 48.3 µM, the TGI (RPMI-8226 leukemia) was > 100 µM and the GI50 (RXF 393 renal) was 23.9 µM. For the same compound, the TGI (RXF 393 renal) was > 84.7 µM, the GI50 (SF-268 CNS) was > 43.9 µM and the TGI (SF-268 CNS) was > 90.2 µM. The GI50 (SF-295 CNS) was 99.5 µM, the TGI (SF-295 CNS) was > 100 µM and the GI50 (SF-539 CNS) was > 100 µM. For the same compound, the TGI (SF-539 CNS) was > 100 µM, the GI50 (SK-MEL-2 melanoma) was > 100 µM and the TGI (SK-MEL-2 melanoma) was > 100 µM. For the same compound, the GI50 (SK-MEL-28 melanoma) was > 83.8 µM, the TGI (SK-MEL-28 melanoma) was > 100 µM and the GI50 (SK-MEL-5 melanoma) was > 59.4 µM. For the same compound, the TGI (SK-MEL-5 melanoma) was > 100 µM, the GI50 (SK-OV-3 ovarian) was > 100 µM and the TGI (SK-OV-3 ovarian) was > 100 µM. The GI50 (SN12C renal) was > 100 µM, the TGI (SN12C renal) was > 100 µM and the GI50 (SNB-19 CNS) was > 100 µM. For the same compound, the TGI (SNB-19 CNS) was > 100 µM, the GI50 (SNB-75 CNS) was 17.3 µM and the TGI (SNB-75 CNS) was 96.8 µM. The GI50 (SR leukemia) was 13.6 µM, the TGI (SR leukemia) was 33.6 µM and the GI50 (SW-620 colon) was > 100 µM. For the same compound, the TGI (SW-620 colon) was > 100 µM, the GI50 (T-47D breast) was 14.6 µM and the TGI (T-47D breast) was 65 µM. The GI50 (TK-10 renal) was > 100 µM, the TGI (TK-10 renal) was > 100 µM and the GI50 (U251 glioblastoma) was 98.8 µM. The TGI (U251 glioblastoma) was > 100 µM, the GI50 (UACC-257 melanoma) was > 63.2 µM and the TGI (UACC-257 melanoma) was > 100 µM. For the same compound, the GI50 (UACC-62 melanoma) was > 100 µM, the TGI (UACC-62 melanoma) was > 100 µM and the GI50 (UO-31 renal) was 60.1 µM. The TGI (UO-31 renal) was > 100 µM.

— PubChem BioAssay (NCI)
